# Columns and labels:
# ZEAMX (Corn, Field) = test: Postemergence herbicidal evaluation; assay type: in vivo, Zea mays; conditions: postemergence
# Method in brief: (§1)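 Two-week-old seedlings sprayed with compound in 50/50 acetone/water plus 0.5% TWEEN 20, at about 0.0156 to 0.500 kg/ha, nozzle at 40 psi. Kept in greenhouse; rated visually 4-5 weeks after treatment on a 0-9 scale versus control, repeat tests averaged.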
# [1] = tested on: GLXMAW (Soybean, Williams); test: Preemergence herbicidal evaluation; assay type: in vivo, Glycine max, (L.) Merr. cv Williams; conditions: rated 4-5 weeks after treatment
# Method in brief: (§2)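 In this greenhouse assay, monocot and dicot seeds are planted in soil and treated prior to emergence with an aqueous acetone spray (about 0.0156-0.500 kg/ha). Plants are assessed visually against control on a 0-9 scale after 4-5 weeks.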
# [2] = tested on: CHEAL (Lambsquarters, Common); test: Postemergence herbicidal evaluation; assay type: in vivo, Chenopodium album; conditions: postemergence
# Method in brief: as §1
# ORYSAT (Rice, Tebonnet) [3] = test: Postemergence herbicidal evaluation; assay type: in vivo, Oryza sativa, (L.) Tebonnet; conditions: postemergence
# Method in brief: as §1
# AMBEL (Ragweed, Common) = test: Preemergence herbicidal evaluation; assay type: in vivo, Ambrosia artemisifolia; conditions: rated 4-5 weeks after treatment
# Method in brief: as §2
# CASOB (Sicklepod) = test: Postemergence herbicidal evaluation; assay type: in vivo, Cassia obtusifolia; conditions: postemergence
# Method in brief: as §1
# SETVI (Foxtail, Green) = test: Preemergence herbicidal evaluation; assay type: in vivo, Setaria viridis; conditions: rated 4-5 weeks after treatment
# Method in brief: as §2
# ORYSAT (Rice, Tebonnet) [4] = test: Preemergence herbicidal evaluation; assay type: in vivo, Oryza sativa, (L.) Tebonnet; conditions: rated 4-5 weeks after treatment
# Method in brief: as §2
# CYPSE (Flatsedge) [5] = test: Postemergence weed control under flooded paddy conditions; assay type: in vivo, Cyperus serotinus; conditions: postemergence weeds, 3-4 weeks after treatment
# Method in brief: (§3)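 Containers holding 3–5 cm weeds and rice at 1.5–2.5 leaves are flooded to 1.5–3 cm above soil. Compound in 50/50 v/v aqueous/acetone is then added directly to the water, about 0.0313–0.500 kg/ha. Plants are kept in the greenhouse and rated 0–9 visually at 3–4 weeks.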
# CYPSE (Flatsedge) [6] = test: Preemergence weed control under flooded paddy conditions; assay type: in vivo, Cyperus serotinus; conditions: rated 3-4 weeks after treatment
# Method in brief: (§4)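 Flooded-pot preemergence screen with silt loam and seeds in the upper 0.5 cm. Dose about 0.0313 to 0.500 kg/ha, delivered into flood water; visual 0-9 score after 3 to 4 weeks.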
# MOOVA (Monochoria) = test: as above; assay type: in vivo, Monochoria vaginalis; conditions: rated 3-4 weeks after treatment
# Method in brief: as §4
# [7] = tested on: SAGPY (Arrowhead (Pygmaea)); test: Postemergence weed control under flooded paddy conditions; assay type: in vivo, Sagittaria pygmaea; conditions: postemergence weeds, 3-4 weeks after treatment
# Method in brief: as §3
# CYPIR (Rice Flatsedge) = test: as above; assay type: in vivo, Cyperus iria; conditions: postemergence weeds, 3-4 weeks after treatment
# Method in brief: as §3
# GALAP (Galium) = test: Postemergence herbicidal evaluation; assay type: in vivo, Galium aparine; conditions: postemergence
# Method in brief: as §1
smiles,measurement,setting,value
"O=C1CSC(=Nc2cc(N3C(=O)C4=C(CCCC4)C3=O)c(F)cc2Cl)N1c1ccccc1 [Compound 3, N-{4-chloro-2-fluoro-5-[(4-oxo-3-phenyl-2-thiazolidinylidene)amino]phenyl}-1-cyclohexene-1,2-dicarboximide]",ZEAMX herbicidal rating,"ZEAMX (Corn, Field); rate 0.0157 kg/ha",3.0
same,ZEAMX herbicidal rating,"ZEAMX (Corn, Field); rate 0.0313 kg/ha",3.0
same,ZEAMX herbicidal rating,"ZEAMX (Corn, Field); rate 0.0625 kg/ha",3.0
same,ZEAMX herbicidal rating,"ZEAMX (Corn, Field); rate 0.1250 kg/ha",3.0
same,ZEAMX herbicidal rating,"ZEAMX (Corn, Field); rate 0.2500 kg/ha",3.5
same,ZEAMX herbicidal rating,"ZEAMX (Corn, Field); rate 0.5000 kg/ha",3.5
same,GLXMAW preemergence herbicidal rating,[1]; rate 0.0313 kg/ha,0.0
same,GLXMAW preemergence herbicidal rating,[1]; rate 0.0625 kg/ha,0.0
same,GLXMAW preemergence herbicidal rating,[1]; rate 0.1250 kg/ha,0.0
same,GLXMAW preemergence herbicidal rating,[1]; rate 0.2500 kg/ha,0.0
same,GLXMAW preemergence herbicidal rating,[1]; rate 0.5000 kg/ha,2.0
same,CHEAL herbicidal rating,[2]; rate 0.0313 kg/ha,7.0
same,CHEAL herbicidal rating,[2]; rate 0.0625 kg/ha,6.0
same,CHEAL herbicidal rating,[2]; rate 0.1250 kg/ha,9.0
same,CHEAL herbicidal rating,[2]; rate 0.2500 kg/ha,9.0
same,CHEAL herbicidal rating,[2]; rate 0.5000 kg/ha,9.0
same,ORYSAT herbicidal rating,"ORYSAT (Rice, Tebonnet) [3]; rate 0.0157 kg/ha",2.0
same,ORYSAT herbicidal rating,"ORYSAT (Rice, Tebonnet) [3]; rate 0.0313 kg/ha",2.5
same,ORYSAT herbicidal rating,"ORYSAT (Rice, Tebonnet) [3]; rate 0.0625 kg/ha",3.0
same,ORYSAT herbicidal rating,"ORYSAT (Rice, Tebonnet) [3]; rate 0.1250 kg/ha",3.0
same,ORYSAT herbicidal rating,"ORYSAT (Rice, Tebonnet) [3]; rate 0.2500 kg/ha",2.0
same,ORYSAT herbicidal rating,"ORYSAT (Rice, Tebonnet) [3]; rate 0.5000 kg/ha",3.5
same,AMBEL preemergence herbicidal rating,"AMBEL (Ragweed, Common); rate 0.0313 kg/ha",0.0
same,AMBEL preemergence herbicidal rating,"AMBEL (Ragweed, Common); rate 0.0625 kg/ha",0.0
same,AMBEL preemergence herbicidal rating,"AMBEL (Ragweed, Common); rate 0.1250 kg/ha",2.0
same,AMBEL preemergence herbicidal rating,"AMBEL (Ragweed, Common); rate 0.2500 kg/ha",2.0
same,AMBEL preemergence herbicidal rating,"AMBEL (Ragweed, Common); rate 0.5000 kg/ha",7.0
same,CASOB herbicidal rating,CASOB (Sicklepod); rate 0.0157 kg/ha,0.0
same,CASOB herbicidal rating,CASOB (Sicklepod); rate 0.0313 kg/ha,0.0
same,CASOB herbicidal rating,CASOB (Sicklepod); rate 0.0625 kg/ha,0.0
same,CASOB herbicidal rating,CASOB (Sicklepod); rate 0.1250 kg/ha,0.0
same,CASOB herbicidal rating,CASOB (Sicklepod); rate 0.2500 kg/ha,6.0
same,CASOB herbicidal rating,CASOB (Sicklepod); rate 0.5000 kg/ha,4.0
same,SETVI preemergence herbicidal rating,"SETVI (Foxtail, Green); rate 0.0313 kg/ha",0.0
same,SETVI preemergence herbicidal rating,"SETVI (Foxtail, Green); rate 0.0625 kg/ha",4.0
same,SETVI preemergence herbicidal rating,"SETVI (Foxtail, Green); rate 0.1250 kg/ha",4.0
same,SETVI preemergence herbicidal rating,"SETVI (Foxtail, Green); rate 0.2500 kg/ha",4.0
same,SETVI preemergence herbicidal rating,"SETVI (Foxtail, Green); rate 0.5000 kg/ha",9.0
same,ORYSAT preemergence herbicidal rating,"ORYSAT (Rice, Tebonnet) [4]; rate 0.0313 kg/ha",0.0
same,ORYSAT preemergence herbicidal rating,"ORYSAT (Rice, Tebonnet) [4]; rate 0.0625 kg/ha",0.0
same,ORYSAT preemergence herbicidal rating,"ORYSAT (Rice, Tebonnet) [4]; rate 0.1250 kg/ha",0.0
same,ORYSAT preemergence herbicidal rating,"ORYSAT (Rice, Tebonnet) [4]; rate 0.2500 kg/ha",0.0
same,ORYSAT preemergence herbicidal rating,"ORYSAT (Rice, Tebonnet) [4]; rate 0.5000 kg/ha",1.0
same,Herbicidal rating CYPSE,CYPSE (Flatsedge) [5]; rate 0.0625 kg/ha,0.0
same,Herbicidal rating CYPSE,CYPSE (Flatsedge) [5]; rate 0.1250 kg/ha,0.0
same,Herbicidal rating CYPSE,CYPSE (Flatsedge) [5]; rate 0.2500 kg/ha,0.0
same,Herbicidal rating CYPSE,CYPSE (Flatsedge) [5]; rate 0.5000 kg/ha,0.0
same,Herbicidal rating CYPSE,CYPSE (Flatsedge) [6]; 0.0625 kg/ha,0.0
same,Herbicidal rating CYPSE,CYPSE (Flatsedge) [6]; 0.1250 kg/ha,0.0
same,Herbicidal rating CYPSE,CYPSE (Flatsedge) [6]; 0.2500 kg/ha,0.0
same,Herbicidal rating CYPSE,CYPSE (Flatsedge) [6]; 0.5000 kg/ha,0.0
same,Herbicidal rating MOOVA,MOOVA (Monochoria); 0.0625 kg/ha,2.0
same,Herbicidal rating MOOVA,MOOVA (Monochoria); 0.1250 kg/ha,9.0
same,Herbicidal rating MOOVA,MOOVA (Monochoria); 0.2500 kg/ha,9.0
same,Herbicidal rating MOOVA,MOOVA (Monochoria); 0.5000 kg/ha,9.0
same,Herbicidal rating SAGPY,[7]; rate 0.0625 kg/ha,0.0
same,Herbicidal rating SAGPY,[7]; rate 0.1250 kg/ha,0.0
same,Herbicidal rating SAGPY,[7]; rate 0.2500 kg/ha,0.0
same,Herbicidal rating SAGPY,[7]; rate 0.5000 kg/ha,0.0
same,Herbicidal rating CYPIR,CYPIR (Rice Flatsedge); rate 0.0625 kg/ha,0.0
same,Herbicidal rating CYPIR,CYPIR (Rice Flatsedge); rate 0.1250 kg/ha,0.0
same,Herbicidal rating CYPIR,CYPIR (Rice Flatsedge); rate 0.2500 kg/ha,0.0
same,Herbicidal rating CYPIR,CYPIR (Rice Flatsedge); rate 0.5000 kg/ha,0.5
same,GALAP herbicidal rating,GALAP (Galium); rate 0.0157 kg/ha,9.0
same,GALAP herbicidal rating,GALAP (Galium); rate 0.0313 kg/ha,2.0
same,GALAP herbicidal rating,GALAP (Galium); rate 0.0625 kg/ha,4.0
same,GALAP herbicidal rating,GALAP (Galium); rate 0.1250 kg/ha,4.0
same,GALAP herbicidal rating,GALAP (Galium); rate 0.2500 kg/ha,6.0
same,GALAP herbicidal rating,GALAP (Galium); rate 0.5000 kg/ha,9.0

# — US20020137929A1, “1 - (3-heterocyclylphenyl) isothiourea, -isourea, -guanidine and -amidine herbicidal agents” (Intellectual Property Department, BASF Aktiengesellschaft, priority 1998, published 2002)
